Source: patent US12655413B2, “Fragmented GRS polypeptide and variant thereof, and use thereof” (CUREBIO THERAPEUTICS, priority 2018, dated 2026)
pKd: −log10 of the molar value. Residues, ends and D or L forms follow the SMILES beside them.

Key:
[1] = tested on: SN12C (CDH6 positive) cells; test: In vivo anticancer activity, intra-tumor injection, SN12C xenograft; set-up: species or system BALB/c nude mice; details: 20 μg into tumors on day 5 and 7; monitored 21 days; FIGS. 6b to 6d
Procedure: FIG. 6a is an experimental scheme for evaluating the ability of GRS, GRS-DP, and representative fragments derived therefrom (GRS-DP-B, or GRS-DP-A cyclic) to induce tumor regression in vivo by intra-tumor injection. Briefly, SN12C (CDH6 positive) cells were subcutaneously injected into BALB/c nude mice and then grown for 5 days to an average tumor size of 100 mm^3. On day 5 and 7, PBS or test materials were each injected at a dose of 20 μg into tumors (n=5 animals/group). Tumor volumes were calculated according to “maximum diameter×minimum diameter^2×0.52”.
Experimental procedures of an assay for in vivo anticancer activity are schematically represented in FIG. 6a. Briefly, 1×10^7 SN12C (CDH6 positive) cells were subcutaneously injected to the right flank of female BALB/c 8 weeks old (Dooyeol Biotech Co. Ltd, Seocho-gu, Seoul) and then grown for 5 days to an average tumor size of 100 mm^3. On day 5 and 7, PBS (control) or test materials (including a control) were each injected at a dose of 20 μg into tumors (n=5 animals/group). After monitoring the tumors for 21 days, the mice were sacrificed on day 21 and the tumors were excised. Tumor volumes were calculated according to “maximum diameter×minimum diameter^2×0.52”.

[2] = tested on: SN12C (CDH6 positive renal cancer cell); test: Comparison of in vitro cancer cell apoptotic activity among the polypeptides (FIG. 2); type: cell-based; details: 1 μg or 2 μg of polypeptide
Procedure: The polypeptide fragments were assayed for cancer cell apoptotic activity. Concrete experiment procedures were as follows: H460, HCT116, MCF7, HeLa, SN12C or RENCA cells were each seeded at a density 5,000 cells/mL into 96-well plates (Corning, New York, USA) and incubated for 24 hours with 100 nM of each of the polypeptide fragments and the full-length GRS protein. Then, each sample was treated for 2 hours with 10 μl of CCK8 reagent (Dojindo Molecular Technologies Inc. Kumamoto, Japan) before absorbance was read at 570 nm on a microplate reader (TECAN, Mannedorf, Swiss).
Comparison was made of cancer cell apoptotic activity among the polypeptide constructs of Examples 1-1 and 1-2. Each polypeptide was used in an amount of 1 μg or 2 μg, and the assay was performed in the same manner as in Example 1-1.

B16F10 cells = test: In vivo tumor targeting of Alexa fluor 488-labeled polypeptides, intravenous injection; set-up: species or system C57BL/6 mice; details: 1 mg/kg intravenously, tumors excised after 24 hours; compared to full-length GRS protein and GRS-DP; FIGS. 8a, 8b
From the text: FIG. 8a is an image of tumors excised from test groups, showing comparison of abilities of GRS, GRS-DP, and representative fragments derived therefrom (GRS-DP-B or GRS-DP-A cyclic) to specifically target cancer cells in terms of fluorescence labeling intensity. In the experiment, B16F10 cells were subcutaneously injected into C57BL/6 mice and then grown for 14 days. On day 14, PBS or fluorescence-labeled test materials were each intravenously injected at a dose of 1 MPK, and tumors were excised 24 hours after injection.
Thus, the ability of GRS-DP-B to target tumors in practice was evaluated when it was administered in a systemic manner. For this, GRS-DP-B, GRS-DP-A cyclic, GRS-DP, and full-length GRS protein were assayed for tumor targeting ability in vivo. Briefly, B16F10 cells (5×10^6 cells) were subcutaneously injected into the right flank of each of C57BL/6 mice 8 weeks old. On day 14, full-length GRS and the polypeptides of the present invention, each labeled with Alexa fluor 488, were intravenously injected at a dose of 1 mg/kg mouse weight, and the tumors were excised after 24 hours. Fluorescent signals of tumors were measured using IVIS Lumina Series III (PerkinElmer, Massachusetts, USA) to analyze regions of interest (ROI)

[3] = tested on: SN12C (CDH6 positive) cells; test: In vivo anticancer activity, intravenous injection, SN12C xenograft; set-up: species or system BALB/c nude mice; details: 5 MPK intravenously on day 5 and 7; monitored 21 days; FIGS. 7a to 7c
From the text: FIG. 7a is an image of tumors excised from experimental animals in each test group sacrificed on day 21 after xenotransplantation of tumor cells, showing results of evaluating the ability of GRS, GRS-DP, and representative fragments derived therefrom (GRS-DP-B, or GRS-DP-A cyclic) to induce tumor regression in vivo by intravenous injection. Briefly, SN12C (CDH6 positive) cells were subcutaneously injected into BALB/c nude mice and then grown for 5 days to an average tumor size of 100 mm^3. On day 5 and 7, PBS or test materials were each intravenously injected at a dose of 5 MPK (n=5 animals/group). Tumor volumes were calculated according to “maximum diameter×minimum diameter^2×0.52”.
Experimental procedures of an assay for in vivo anticancer activity are schematically represented in FIG. 6a. Briefly, 1×10^7 SN12C (CDH6 positive) cells were subcutaneously injected to the right flank of female BALB/c 8 weeks old (Dooyeol Biotech Co. Ltd, Seocho-gu, Seoul) and then grown for 5 days to an average tumor size of 100 mm^3. On day 5 and 7, PBS (control) or test materials (including a control) were each intravenously injected at a dose of 5 MPK (n=5 animals/group). After monitoring the tumors for 21 days, the mice were sacrificed on day 21 and the tumors were excised. Tumor volumes were calculated according to “maximum diameter×minimum diameter^2×0.52”.

[4] = tested on: pERK in SN12C (CDH6 positive) cells or RENCA (CDH6 negative) cells; test: Dephosphorylation of pERK by western blotting; type: cell-based; details: 100 nM or 200 nM, 1 hour; SN12C vs RENCA; FIGS. 5b, 5c
Procedure: To examine whether the polypeptides of the present invention dephosphorylates pERK by binding to CDH6 or not, SN12C (CDH6 positive) cells or RENCA (CDH6 negative) cells were treated with the polypeptides of the present invention (typically, 100 nM or 200 nM of GRS-DP) and dephosphorylation of pERK was analyzed. In this regard, full-length GRS 100 nM was used as a positive control. In brief, the cells were […] for 1 hour with full-length GRS or GRS-DP, washed twice with chilled PBS, and lysed in a lysis buffer (150 mM NaCl, 2 mM EDTA, 1% Triton X-100, 1% sodium deoxycholate, 10 mM NaF, 1 mM orthovandadate, 10% glycerol, protease cocktail). Thirty micrograms of each protein were run on SDS/PAGE, followed by western blotting with an ERK antibody purchased from Cell Signaling Technology (Danvers, MA, USA) and an anti-cadherin-6 (K-cadherin) antibody purchased from Abcam (Cambridge, UK).

[5] = tested on: CDH6+/pERK+ cells (H460, HeLa, SN12C) or negative cells (RENCA, MCF7); test: CDH6-dependency: cell viability of CDH6/pERK positive or negative cells; type: cell-based; details: GRS-DP 100 nM (FIG. 5a legend: 200 nM); CDH6 positive vs negative cells
[6] = biological target: T1, cadherin6 (CDH6)-fc fusion protein (Homo sapiens, UniProt P55285); test: Affinity for CDH6 by surface plasmon resonance (SPR); type: binding; details: CDH6 immobilized on carboxymethyl dextran chip
T1 construct: Fc
Procedure: Comparison was made of the affinity of the peptides of the present invention for CDH6. The binding of GRS and GRS-derived peptides to cadherin6 (CDH6)-fc fusion protein was analyzed by surface plasmon resonance (SPR) using SR7500DC, Reichert Analytical Instrument (Depew NY). CDH6 was immobilized on a [CMDH chip]carboxymethyl dextran sensor chip via a free carboxyl group on the surface thereof, followed by injecting 0.1M 1-ethyl-3-(3-dimethylaminopropyl) carbodiimide hydrochloride and 0.05M N-hydroxysuccinimide at a flow speed of 5 μL/min to give an activated succinimide ester-modified surface. Various concentrations of GRS and GRS-derived peptides were injected at a flow speed of 30 μL/min into phosphate-based saline, after which a mobile-phase buffer was injected at the same flow speed to determine a dissociation rate. Data was analyzed using Software Scrubber 2.0 (Biological Software, Australia).

T1 sequence (P55285 with tags, fused parts or gaps limits assumed): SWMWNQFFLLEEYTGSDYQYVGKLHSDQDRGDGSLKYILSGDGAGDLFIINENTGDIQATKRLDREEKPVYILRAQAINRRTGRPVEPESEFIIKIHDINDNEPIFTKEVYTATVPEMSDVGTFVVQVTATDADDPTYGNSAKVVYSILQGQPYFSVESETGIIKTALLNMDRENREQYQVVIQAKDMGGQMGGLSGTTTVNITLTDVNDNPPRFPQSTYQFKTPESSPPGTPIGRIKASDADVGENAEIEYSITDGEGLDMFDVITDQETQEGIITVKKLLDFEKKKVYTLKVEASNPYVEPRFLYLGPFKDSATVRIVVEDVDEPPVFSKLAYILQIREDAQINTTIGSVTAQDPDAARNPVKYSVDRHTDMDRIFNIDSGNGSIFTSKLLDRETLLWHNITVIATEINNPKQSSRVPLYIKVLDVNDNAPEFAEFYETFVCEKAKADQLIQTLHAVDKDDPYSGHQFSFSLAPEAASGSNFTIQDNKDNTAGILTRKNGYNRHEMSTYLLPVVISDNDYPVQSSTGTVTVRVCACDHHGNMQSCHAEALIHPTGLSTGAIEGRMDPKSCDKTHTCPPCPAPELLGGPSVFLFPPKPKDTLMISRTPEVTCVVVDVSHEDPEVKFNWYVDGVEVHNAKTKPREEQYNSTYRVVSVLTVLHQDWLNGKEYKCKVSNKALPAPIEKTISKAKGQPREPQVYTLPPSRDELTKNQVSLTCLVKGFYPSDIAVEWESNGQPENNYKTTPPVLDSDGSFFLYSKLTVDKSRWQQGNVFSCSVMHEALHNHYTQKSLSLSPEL

Molecule	sizes (volumes) and weights of tumors [1]	cancer cell apoptotic effect [2]	tumor-specific target ability (fluorescence ROI of excised tumors) (B16F10 cells)	sizes (volumes) and weights of tumors [3]	dephosphorylation of pERK [4]	cell viability [5]	pKd [6]
GRS-DP-B: truncated GRS fragment, positions 531-538 on SEQ ID NO: 1, 8 aa (SEQ ID NO: 2) (MYTVFEHT; GRS-DP-B(GRS 531-538))	most remarkably reduced	remarkably	remarkably high tumor-specific target ability	most remarkably reduced	–	–	–
GRS-DP-C: truncated GRS fragment, positions 538-552 on SEQ ID NO: 1, 15 aa (SEQ ID NO: 12) (TFHVREGDEQRTFFS; GRS-DP-C (GRS 538-552))	–	not detected	–	–	–	–	–
MYTVFEHTFHVREGDEQRTFFSFPAVVAPFKCSVLPLSQNQEFMPFVKELSEALTRHGVSHKVDDSSGSI [GRS-DP]	–	remarkably	–	–	inducing the CDH6-dependent dephosphorylation of pERK	reduced the cell viability of CDH6-positive cells only	7.08
CSCC[C@H](N)C(=O)N[C@@H](Cc1ccc(O)cc1)C(=O)N[C@H](C(=O)N[C@H](C(=O)N[C@@H](Cc1ccccc1)C(=O)N[C@@H](CCC(=O)O)C(=O)N[C@@H](Cc1c[nH]cn1)C(=O)N[C@H](C(=O)N[C@@H](Cc1ccccc1)C(=O)N[C@@H](Cc1c[nH]cn1)C(=O)N[C@H](C(=O)N[C@@H](CCCNC(=N)N)C(=O)N[C@@H](CCC(=O)O)C(=O)NCC(=O)N[C@@H](CC(=O)O)C(=O)N[C@@H](CCC(=O)O)C(=O)N[C@@H](CCC(N)=O)C(=O)N[C@@H](CCCNC(=N)N)C(=O)N[C@H](C(=O)N[C@@H](Cc1ccccc1)C(=O)N[C@@H](Cc1ccccc1)C(=O)N[C@@H](CO)C(=O)N[C@@H](Cc1ccccc1)C(=O)N1CCC[C@H]1C(=O)N[C@@H](C)C(=O)O)[C@@H](C)O)C(C)C)[C@@H](C)O)C(C)C)[C@@H](C)O [GRS-DP-A linear] (H-MYTVFEHTFHVREGDEQRTFFSFPA-OH; N-terminus and C-terminus assumed)	–	remarkably	–	–	–	–	–
